Results from patent publication US7495023B2, “Thio semicarbazone and semicarbozone inhibitors of cysteine proteases and methods of their use” (The Regents of the University of California, priority 2002, dated 2009).
“Also recorded” adds a separate entry of the source. Read-outs that look alike come from different tables or passages of the source. Each block holds one compound with its values, some of them ahead of it.

Tests used:
cruzain = cruzain (Trypanosoma cruzi, UniProt P25779); type: biochemical; conditions: incubation 90 s to 24 h
cruzain, sequence (P25779 123-467): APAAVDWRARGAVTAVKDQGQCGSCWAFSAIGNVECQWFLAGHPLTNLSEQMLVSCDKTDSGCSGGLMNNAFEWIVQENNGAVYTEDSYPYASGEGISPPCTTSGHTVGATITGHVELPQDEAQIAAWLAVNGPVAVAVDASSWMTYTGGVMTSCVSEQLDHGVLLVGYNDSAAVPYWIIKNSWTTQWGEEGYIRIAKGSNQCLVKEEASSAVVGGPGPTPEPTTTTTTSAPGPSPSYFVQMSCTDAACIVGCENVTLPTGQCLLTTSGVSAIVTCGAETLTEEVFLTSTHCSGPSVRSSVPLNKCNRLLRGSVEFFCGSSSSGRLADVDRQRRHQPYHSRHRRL
Method: The time dependence of inhibition was determined by incubating cruzain with inhibitors, DMSO, or enzyme alone at room temperature for time points between 90 s and 24 h. The enzymatic activity was determined as above.
A known irreversible inhibitor, K002 (morpholino urea-Phe-homoPhe-vinyl sulfone benzene; Axys Pharmaceuticals Inc., South San Francisco, Calif.), and a known reversible covalent inhibitor, leupeptin, were used as controls for the thio semicarbazones.

J774 macrophages = assay: Toxicity to mammalian host cells in the cell culture assay; type: cell-based
Method: (§1) Drug Screening in Cell Culture. Mammalian cells are routinely cultured in RPMI-1640 medium supplemented with 5-10% heat-inactivated fetal calf serum (FCS) at 37° C. in 5% CO2. The Y strain of T. cruzi is maintained by serial passage in bovine embryo skeletal muscle (BESM) cells. Infectious trypomastigotes are collected from culture supernatants. For drug assays, J774 macrophages were irradiated (5000 rad) and plated onto six-well tissue culture plates 24 h prior to infection with ˜106 trypomastigotes/well. Parasites are removed 2 h postinfection, and the medium is supplemented with the appropriate cysteine protease inhibitor (10 μM). Inhibitor stocks (10 mM) in DMSO were stored at 4° C. J774 monolayers treated with a blank containing DMSO are used as a negative control, and monolayers treated with a known trypanocidal inhibitor, 10 μM N-methyl piperazine-Phe-homoPhe-vinyl sulfone phenyl (N-Pip-F-hF-VSPh) acted as a positive control (Engel et al., J. Exp. Med., 188:725-734 (1998)). RPMI medium with or without inhibitor is replaced every 48 h. Cultures are maintained for up to 30 days and monitored daily by contrast phase microscopy. […] The comparative effectiveness of each inhibitor was estimated from plots of the duration of the intracellular cycle of T. cruzi (days) in treated vs untreated control wells.
The toxicity of compounds to mammalian host cells was also evaluated in the assay.

parasite P. falciparum = assay: WHO screen against P. falciparum parasites; type: cell-based
Excerpt: (§2) Thio semicarbazones have been tested against falcipain 2, which is the cysteine protease of parasites related to malaria. […] The WHO (World Health Organization) helped to screen compound 1i against a couple of parasite strains. It has activity against T. cruzi and P. falciparum parasites.

T. cruzi parasites = assay: WHO screen against T. cruzi parasites; type: cell-based
Excerpt: as §2

T. cruzi (Y strain) = assay: Anti-trypanosomal cell culture assay, T. cruzi-infected J774 macrophages; type: cell-based; conditions: for effect on T. cruzi in cell culture (trypanocidal / trypanostatic / inactive): inhibitor 10 μM, cultures up to 30 days
Method: as §1, with “Parasites are removed 2 h postinfection, and the medium is supplemented with the appropriate cysteine protease inhibitor (10 μM).” left out

[1] = Solubility observations (cell culture medium, methanol); type: physicochemical
[2] = molecular target: T. cruzi cathepsin L-like protease (cruzain) (Trypanosoma cruzi, UniProt P25779); assay: biochemical
T. cruzi cathepsin L-like protease (cruzain), sequence (P25779 123-467): as above
Method: (§3) IC50 Determinations. Inhibitors were screened for effectiveness against the T. cruzi cathepsin L-like protease (cruzain) using purified recombinant protein. Cruzain (1 nM) was incubated with 20-50000 nM inhibitor in 100 mM sodium acetate-5 mM DTT buffer (pH 5.50, buffer A) for 5 min at room temperature. […] The increase in fluorescence (excitation at 355 nm and emission at 460 nm) was followed with an automated microtiter plate spectrofluorimeter (Molecular Devices, spectraMAX Gemini). Inhibitor stock solutions were prepared at 20 mM in DMSO, and serial dilutions were made in DMSO (0.7% DMSO in assay). Controls were performed using enzyme alone and enzyme with DMSO. IC50 values were determined graphically using inhibitor concentrations in the linear portion of a plot of inhibition versus log [I] (seven concentrations were tested, and at least two were in the linear range).

human cathepsin B = human cathepsin B (Homo sapiens, UniProt P07858); assay: Inhibition of cathepsin B protease activity; type: biochemical
Method: as §3, with “protein.” for “protein. Cruzain (1 nM) was incubated with 20-50000 nM inhibitor in 100 mM sodium acetate-5 mM DTT buffer (pH 5.50, buffer A) for 5 min at room temperature.”
Enzyme assays to test the ability of thio semicarbazone compounds to inhibit the cysteine protease activity of rhodesain and cathepsin B were carried out as described for assays to test inhibition of protease activity by cruzain. In these assays, inhibition of cruzain is included as a positive control.

T. cruzi [3] = conditions: cited from earlier work
T. cruzi [4] = conditions: mouse model; cited from earlier work
falcipain-2 = molecular target: T1, falcipain-2 (Plasmodium falciparum, UniProt Q8I6U4); assay: Inhibition of falcipain-2; type: biochemical
T1 sequence (Q8I6U4 244-484): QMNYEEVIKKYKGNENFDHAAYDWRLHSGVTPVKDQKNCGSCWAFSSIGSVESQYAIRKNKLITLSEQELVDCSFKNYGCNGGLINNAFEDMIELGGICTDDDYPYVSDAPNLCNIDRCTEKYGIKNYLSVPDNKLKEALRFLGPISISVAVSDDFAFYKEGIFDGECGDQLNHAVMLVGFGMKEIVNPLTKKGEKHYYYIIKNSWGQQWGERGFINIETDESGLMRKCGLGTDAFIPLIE
Excerpt: as §2

[5] = 5 min incubation, room temperature, pH 5.50, read-out: IC50 against cruzain

Compound: CCC(=NNC(N)=S)c1cccc(Br)c1 [Compound 1i, 3′-Bromopropiophenone Thio Semicarbazone]
time dependence of cruzain inhibition (cruzain): time-dependent
toxicity to host cells, in words (J774 macrophages): without toxicity to host cells
IC50 (parasite P. falciparum; Plasmodium falciparum): 16 to 32 µM
activity against P. falciparum parasites (parasite P. falciparum; WHO screen): has activity
activity against T. cruzi parasites (T. cruzi parasites): has activity
effect on T. cruzi in cell culture (trypanocidal / trypanostatic / inactive) (T. cruzi (Y strain)): significant trypanocidal activity; also recorded: cured of trypanosomal infection; also recorded: trypanocidal effect
time postinfection that cells stayed healthy and parasite-free (T. cruzi (Y strain); treated for three weeks, then compound removed, experiment terminated): ≥ 6.5 weeks
solubility in the cell culture medium, in words [1]: without toxicity to host cells or solubility problems

Compound: NC(=S)NN=Cc1ccc(-c2cccc(Cl)c2)o1 [Compound 1e, 5-(3-Chlorophenyl)-2-furancarboxaldehyde Thio Semicarbazone]
IC50 [2, 5]: < 300 nM
concentration at which toxicity to host cells was observed (J774 macrophages): 10 µM
melting point: 198.8 to 199.8 °C
survival of infected host cells (T. cruzi (Y strain); compound at 5 μM, untreated infected cells die within 5 days): 10 days
effect on T. cruzi in cell culture (trypanocidal / trypanostatic / inactive) (T. cruzi (Y strain)): trypanostatic

Compound: NC(=S)NN=Cc1ccc(-c2ccc(Br)cc2)o1 [Compound 1f, 5-(4-Bromophenyl)-2-furancarboxaldehyde Thio Semicarbazone]
IC50 [2, 5]: < 300 nM
survival of infected host cells / duration of trypanostatic effect (T. cruzi (Y strain); inhibitor 10 μM (method), untreated infected cells die within 5 days): 14 days
effect on T. cruzi in cell culture (trypanocidal / trypanostatic / inactive) (T. cruzi (Y strain)): trypanostatic
solubility in the cell culture medium, in words [1]: crystallized in the cell culture medium

Compound: NC(=S)NN=Cc1ccc(-c2ccc(Cl)cc2)o1 [Compound 1b, 5-(4-Chlorophenyl)-2-furancarboxaldehyde Thio Semicarbazone]
IC50 [2, 5]: < 300 nM
solubility in the cell culture medium, in words [1]: solubility (1b) appears to be a problem

Compound: COc1ccccc1-c1ccc(C=NNC(N)=S)o1 [Compound 1c, 5-(2-Methoxyphenyl)-2-furancarboxaldehyde Thio Semicarbazone]
IC50 [2]: < 300 nM
toxicity to host cells, in words (J774 macrophages): Toxicity
melting point: 209.5 to 211.1 °C

Compound: O=C(N[C@H](/C=C/S(=O)(=O)c1ccccc1)CCc1ccccc1)[C@H](Cc1ccccc1)NC(=O)N1CCOCC1 [Compound K002, morpholino urea-Phe-homoPhe-vinyl sulfone benzene]
IC50 (human cathepsin B; read-out: cathepsin B IC50 (μM) 5 min preincubation, 5 min preincubation): 0.5 µM
IC50 (human cathepsin B; read-out: cathepsin B IC50 (μM) 30 min preincubation, 30 min preincubation): < 0.1 µM
time dependence of cruzain inhibition (cruzain): rapidly time-dependent

Compound: benzyloxy-carbonyl-L-phenylalanyl L-alanine fluoromethyl ketone [Z-Phe-Ala-FMK]
effect on replication and differentiation of T. cruzi in cultures (T. cruzi [3]): blocks replication and differentiation of the parasite

Compound: CN1CCN(C(=O)NC(Cc2ccccc2)C(=O)NC(C=CS(=O)(=O)c2ccccc2)CCc2ccccc2)CC1 (stereo not shown) [N-Pip-F-hF-VSPh, N-methyl piperazine-Phe-homoPhe-vinyl sulfone phenyl, reference compound]
effect on T. cruzi in cell culture (trypanocidal / trypanostatic / inactive) (T. cruzi (Y strain)): unable to survive
outcome of treatment of T. cruzi-infected mice (T. cruzi [4]): resulted in a cure

Compound: COc1ccc2ccccc2c1C=NNC(N)=S [Compound 1n, 2-Methoxy-1-naphthaldehyde Thio Semicarbazone]
IC50 [2, 5]: 560 nM
toxicity to host cells, in words (J774 macrophages): Toxicity

The next lines start with results.

cruzain inhibitory activity, in words [2]: better than that of 1i
solubility in methanol, in words ([1]; methanol): poorest solubility in methanol
Compound: CC1CN(C(N)=S)N=C1c1ccc(Cl)c(Cl)c1 (stereo not shown) [Compound 4f, 3-(3,4-Dichlorophenyl)-4-methyl-2-pyrazoline-1-thiocarboxamide]
effect on T. cruzi in cell culture (trypanocidal / trypanostatic / inactive) (T. cruzi (Y strain)): trypanostatic

cruzain inhibitory activity, in words [2]: better IC50 values than 1i
IC50 [2, 5]: 20 nM
increase in activity over 1i (cruzain) ([2]; compared to 1i): ~5 fold
IC50 (falcipain-2): 150 nM
Compound: CCC(=NNC(N)=S)c1ccc(Cl)c(Cl)c1 [Compound 2i, 3′,4′-Dichloropropiophenone Thio Semicarbazone]
